Laboratory results from publication PMC10294627, “PhoPQ Regulates Quinolone and Cephalosporin Resistance Formation in Salmonella Enteritidis at the Transcriptional Level” (mBio, 2023).
Like-named read-outs stand apart in the source and are kept apart here.

What was measured:
His-tagged PhoQ = target: T1, His-tagged PhoQ (Salmonella enterica, UniProt P0DM80); experiment: Phos-tag gel autophosphorylation, membrane extract, anti-His blot; assay type: biochemical; conditions: with ATP, in vitro
T1 construct: 6xHis-tagged PhoQ, no truncation stated, in membrane extracts of E. coli DH5alpha; anti-His read-out; dimeric histidine kinase

[1] = target: T2, PhoQ^SD (periplasmic sensor domain of PhoQ) (Salmonella enterica, UniProt P0DM80); experiment: microscale thermophoresis; assay type: binding
T2 construct: periplasmic sensor domain (residues 45-188 as aligned; exact construct borders in supplement), His-tagged, pET28a, E. coli BL21, Ni-NTA purified, dimer by native-PAGE
Excerpt: microscale thermophoresis on PhoQ^SD (periplasmic sensor domain of PhoQ) | NAL, CAZ, or ofloxacin, we also obtained well-fitted curves

[2] = target: T2, PhoQ^SD (periplasmic sensor domain of PhoQ); experiment: differential scanning calorimetry; assay type: binding; conditions: 20 μM protein, 100 μM ligand, 10 mM sodium phosphate pH 7.4; Tm of complex, apo Tm 52.29 °C
[3] = target: periplasmic sensor domain of PhoQ (PhoQ^SD), His-tagged, S. Enteritidis (Salmonella Enteritidis); experiment: native gel or EMSA; native-PAGE of PhoQ^SD expressed in E. coli BL21; data not shown

CO/N=C(\C(=O)N[C@@H]1C(=O)N2C(C(=O)[O-])=C(C[N+]3(C)CCCC3)CS[C@H]12)c1csc(N)n1 [cefepime]
Phos-tag gel autophosphorylation, membrane extract, anti-His blot (His-tagged PhoQ): cephalosporins (ceftazidime, ceftriaxone, and cefepime) or ATP

CC(C)(O/N=C(\C(=O)N[C@@H]1C(=O)N2C(C(=O)[O-])=C(C[n+]3ccccc3)CS[C@H]12)c1csc(N)n1)C(=O)O [ceftazidime]
Kd [1]: 25.6 ± 13.4 µM
Tm [2]: 50.54 °C

CO/N=C(\C(=O)N[C@@H]1C(=O)N2C(C(=O)O)=C(CSc3nc(=O)c(=O)[nH]n3C)CS[C@H]12)c1csc(N)n1 [ceftriaxone]
Phos-tag gel autophosphorylation, membrane extract, anti-His blot (His-tagged PhoQ): cephalosporins (ceftazidime, ceftriaxone, and cefepime) or ATP

O=C(O)c1cn(C2CC2)c2cc(N3CCNCC3)c(F)cc2c1=O [ciprofloxacin]
Phos-tag gel autophosphorylation, membrane extract, anti-His blot (His-tagged PhoQ): treated with quinolones (nalidixic acid, ciprofloxacin, and ofloxacin)

CCn1cc(C(=O)O)c(=O)c2ccc(C)nc21 [nalidixic acid]
Kd [1]: 24.7 ± 4.3 µM
Tm [2]: 51.00 °C

CC1COc2c(N3CCN(C)CC3)c(F)cc3c(=O)c(C(=O)O)cn1c23 (stereo not drawn) [ofloxacin]
Kd ([1]; read-out: Kd): 33.1 ± 28.3 µM

periplasmic sensor domain of PhoQ (PhoQ^SD), His-tagged, S. Enteritidis (domain or fragment)
stoichiometry N [3]: 2
